Data reported in ChEMBL document CHEMBL1158249, “Cytotoxic falcarinol oxylipins from Dendropanax arboreus” (J Nat Prod, 1996).
Calls of active or inactive are those of the source. The calls are words filed in the database; no cut-off is given here.

Key:
[1] = Cytotoxicity against human NCI60 cells; type: functional
[2] = system: LOX; experiment: Antitumor activity against human LOX cells xenografted athymic nude mouse at 0.59 mg/kg, ip administered daily for 5 days; type: functional, organism-based; set-up: dose 0.59 mg/kg
[3] = system: LOX; experiment: Antitumor activity against human LOX cells xenografted athymic nude mouse at 0.39 mg/kg, ip administered daily for 5 days; type: functional, organism-based; set-up: dose 0.39 mg/kg
[4] = system: LOX; experiment: Antitumor activity against human LOX cells xenografted athymic nude mouse at 6.0 mg/kg, ip administered daily for 5 days; type: functional, organism-based; set-up: dose 6 mg/kg
[5] = system: LOX; experiment: Antitumor activity against human LOX cells xenografted athymic nude mouse at 0.26 mg/kg, ip administered daily for 5 days; type: functional, organism-based; set-up: dose 0.26 mg/kg
[6] = system: Mus musculus; experiment: Toxicity against human LOX cells xenografted athymic nude mouse assessed as median day of death at 0.88 mg/kg, ip administered daily for 5 days; type: organism-based; set-up: dose 0.88 mg/kg, route intraperitoneal; details: in vivo, 120 h
[7] = system: Mus musculus; experiment: Toxicity against human LOX cells xenografted athymic nude mouse assessed as median day of death at 3.0 mg/kg, ip administered daily for 5 days; type: organism-based; set-up: dose 3 mg/kg, route intraperitoneal; details: in vivo, 120 h
[8] = system: Mus musculus; experiment: Toxicity against human LOX cells xenografted athymic nude mouse assessed as median day of death at 2.0 mg/kg, ip administered daily for 5 days; type: organism-based; set-up: dose 2 mg/kg, route intraperitoneal; details: in vivo, 120 h
[9] = system: Mus musculus; experiment: Toxicity against human LOX cells xenografted athymic nude mouse assessed as median day of death at 1.33 mg/kg, ip administered daily for 5 days; type: organism-based; set-up: dose 1.33 mg/kg, route intraperitoneal; details: in vivo, 120 h
[10] = system: Mus musculus; experiment: Toxicity against human LOX cells xenografted athymic nude mouse assessed as median day of death at 0.59 mg/kg, ip administered daily for 5 days; type: organism-based; set-up: dose 0.59 mg/kg, route intraperitoneal; details: in vivo, 120 h
[11] = system: Mus musculus; experiment: Toxicity against human LOX cells xenografted athymic nude mouse assessed as median day of death at 0.39 mg/kg, ip administered daily for 5 days; type: organism-based; set-up: dose 0.39 mg/kg, route intraperitoneal; details: in vivo, 120 h
[12] = system: Mus musculus; experiment: Toxicity against human LOX cells xenografted athymic nude mouse assessed as median day of death at 6.0 mg/kg, ip administered daily for 5 days; type: organism-based; set-up: dose 6 mg/kg, route intraperitoneal; details: in vivo, 120 h
[13] = system: Mus musculus; experiment: Toxicity against human LOX cells xenografted athymic nude mouse assessed as median day of death at 0.26 mg/kg, ip administered daily for 5 days; type: organism-based; set-up: dose 0.26 mg/kg, route intraperitoneal; details: in vivo, 120 h
[14] = Antitumor activity against human LOX cells xenografted athymic nude mouse assessed as increase in life span at 1.33 mg/kg, ip administered daily for 5 days; type: functional; details: route intraperitoneal
[15] = system: LOX; experiment: Antitumor activity against human LOX cells xenografted athymic nude mouse at 0.88 mg/kg, ip administered daily for 5 days; type: functional, organism-based; set-up: dose 0.88 mg/kg
[16] = system: LOX; experiment: Antitumor activity against human LOX cells xenografted athymic nude mouse at 3.0 mg/kg, ip administered daily for 5 days; type: functional, organism-based; set-up: dose 3 mg/kg
[17] = system: LOX; experiment: Antitumor activity against human LOX cells xenografted athymic nude mouse at 2.0 mg/kg, ip administered daily for 5 days; type: functional, organism-based; set-up: dose 2 mg/kg
[18] = system: LOX; experiment: Antitumor activity against human LOX cells xenografted athymic nude mouse at 1.33 mg/kg, ip administered daily for 5 days; type: functional, organism-based; set-up: dose 1.33 mg/kg
[19] = system: LOX; experiment: Antitumor activity against human LOX cells xenografted athymic nude mouse at 0.17 mg/kg, ip administered daily for 5 days; type: functional, organism-based; set-up: dose 0.17 mg/kg
[20] = system: Mus musculus; experiment: Toxicity against human LOX cells xenografted athymic nude mouse assessed as median day of death at 0.17 mg/kg, ip administered daily for 5 days; type: organism-based; set-up: dose 0.17 mg/kg, route intraperitoneal; details: in vivo, 120 h
[21] = Antitumor activity against human LOX cells xenografted athymic nude mouse assessed as increase in life span at 0.88 mg/kg, ip administered daily for 5 days; type: functional; details: route intraperitoneal
[22] = Antitumor activity against human LOX cells xenografted athymic nude mouse assessed as increase in life span at 0.59 mg/kg, ip administered daily for 5 days; type: functional; details: route intraperitoneal
[23] = Antitumor activity against human LOX cells xenografted athymic nude mouse assessed as increase in life span at 3.0 mg/kg, ip administered daily for 5 days; type: functional; details: route intraperitoneal
[24] = Antitumor activity against human LOX cells xenografted athymic nude mouse assessed as increase in life span at 2.0 mg/kg, ip administered daily for 5 days; type: functional; details: route intraperitoneal
[25] = Antitumor activity against human LOX cells xenografted athymic nude mouse assessed as increase in life span at 0.26 mg/kg, ip administered daily for 5 days; type: functional; details: route intraperitoneal
[26] = system: Mus musculus; experiment: Toxicity against human LOX cells xenografted athymic nude mouse assessed as median day of death at 225 mg/kg, ip administered daily for 5 days; type: organism-based; set-up: dose 225 mg/kg, route intraperitoneal; details: in vivo, 120 h
[27] = system: Mus musculus; experiment: Toxicity against human LOX cells xenografted athymic nude mouse assessed as median day of death at 112.5 mg/kg, ip administered daily for 5 days; type: organism-based; set-up: dose 112.5 mg/kg, route intraperitoneal; details: in vivo, 120 h
[28] = system: Mus musculus; experiment: Toxicity against human LOX cells xenografted athymic nude mouse assessed as median day of death at 56.25 mg/kg, ip administered daily for 5 days; type: organism-based; set-up: dose 56.25 mg/kg, route intraperitoneal; details: in vivo, 120 h
[29] = system: Mus musculus; experiment: Toxicity against human LOX cells xenografted athymic nude mouse assessed as median day of death at 28.12 mg/kg, ip administered daily for 5 days; type: organism-based; set-up: dose 28.12 mg/kg, route intraperitoneal; details: in vivo, 120 h
[30] = system: Mus musculus; experiment: Toxicity against human LOX cells xenografted athymic nude mouse assessed as median day of death at 14.06 mg/kg, ip administered daily for 5 days; type: organism-based; set-up: dose 14.06 mg/kg, route intraperitoneal; details: in vivo, 120 h
[31] = system: Mus musculus; experiment: Toxicity against human LOX cells xenografted athymic nude mouse assessed as median day of death at 7.03 mg/kg, ip administered daily for 5 days; type: organism-based; set-up: dose 7.03 mg/kg, route intraperitoneal; details: in vivo, 120 h
[32] = system: Mus musculus; experiment: Toxicity against human LOX cells xenografted athymic nude mouse assessed as median day of death at 3.51 mg/kg, ip administered daily for 5 days; type: organism-based; set-up: dose 3.51 mg/kg, route intraperitoneal; details: in vivo, 120 h
[33] = system: Mus musculus; experiment: Toxicity against human LOX cells xenografted athymic nude mouse assessed as median day of death at 1.76 mg/kg, ip administered daily for 5 days; type: organism-based; set-up: dose 1.76 mg/kg, route intraperitoneal; details: in vivo, 120 h
[34] = Antitumor activity against human LOX cells xenografted athymic nude mouse assessed as increase in life span at 1.76 mg/kg, ip administered daily for 5 days; type: functional; details: route intraperitoneal
[35] = Antitumor activity against human LOX cells xenografted athymic nude mouse assessed as increase in life span at 0.17 mg/kg, ip administered daily for 5 days; type: functional; details: route intraperitoneal
[36] = system: LOX; experiment: Antitumor activity against human LOX cells xenografted athymic nude mouse at 225 mg/kg, ip administered daily for 5 days; type: functional, organism-based; set-up: dose 225 mg/kg
[37] = system: LOX; experiment: Antitumor activity against human LOX cells xenografted athymic nude mouse at 112.5 mg/kg, ip administered daily for 5 days; type: functional, organism-based; set-up: dose 112.5 mg/kg
[38] = system: LOX; experiment: Antitumor activity against human LOX cells xenografted athymic nude mouse at 56.25 mg/kg, ip administered daily for 5 days; type: functional, organism-based; set-up: dose 56.25 mg/kg
[39] = system: LOX; experiment: Antitumor activity against human LOX cells xenografted athymic nude mouse at 28.12 mg/kg, ip administered daily for 5 days; type: functional, organism-based; set-up: dose 28.12 mg/kg
[40] = system: LOX; experiment: Antitumor activity against human LOX cells xenografted athymic nude mouse at 14.06 mg/kg, ip administered daily for 5 days; type: functional, organism-based; set-up: dose 14.06 mg/kg
[41] = system: LOX; experiment: Antitumor activity against human LOX cells xenografted athymic nude mouse at 7.03 mg/kg, ip administered daily for 5 days; type: functional, organism-based; set-up: dose 7.03 mg/kg
[42] = system: LOX; experiment: Antitumor activity against human LOX cells xenografted athymic nude mouse at 3.51 mg/kg, ip administered daily for 5 days; type: functional, organism-based; set-up: dose 3.51 mg/kg
[43] = system: LOX; experiment: Antitumor activity against human LOX cells xenografted athymic nude mouse at 1.76 mg/kg, ip administered daily for 5 days; type: functional, organism-based; set-up: dose 1.76 mg/kg

Structure (SMILES): C=C[C@@H](O)C#CC#C[C@@H](O)/C=C\CCCCCCC [FALCARINDIOL]
- GI50 [1]: 660 nM
- TGI [1]: 2200 nM

Structure (SMILES): C=CCCCCC/C=C\[C@H](O)C#CC#C[C@@H](O)C=C
- Activity [2]: inactive
- Activity [3]: inactive
- Activity [4]: inactive
- Activity [5]: inactive
- Activity [6]: 14 days
- Activity [7]: 14.5 days
- Activity [8]: 14 days
- Activity [9]: 15.5 days
- Activity [10]: 15 days
- Activity [11]: 14.5 days
- Activity [12]: 15 days
- Activity [13]: 15 days
- Activity [14]: 3%
- GI50 [1]: 2100 nM
- LC50 [1]: 10000 nM
- TGI [1]: 3000 nM
- Activity [15]: inactive
- Activity [16]: inactive
- Activity [17]: inactive
- Activity [18]: inactive

Structure (SMILES): C=CCCCCC/C=C\CC#CC#C[C@@H](O)C=C
- Activity [2]: inactive
- Activity [3]: inactive
- Activity [19]: inactive
- Activity [5]: inactive
- Activity [6]: 15 days
- Activity [7]: 18 days
- Activity [8]: 16 days
- Activity [9]: 15 days
- Activity [10]: 15 days
- Activity [11]: 15 days
- Activity [20]: 15 days
- Activity [13]: 18 days
- Activity [21]: 13%
- Activity [22]: 20%
- Activity [23]: 47%
- Activity [24]: 27%
- Activity [14]: 20%
- Activity [25]: 20%
- GI50 [1]: 400 nM
- LC50 [1]: 4800 nM
- TGI [1]: 1300 nM
- Activity [15]: inactive
- Activity [16]: inactive
- Activity [17]: inactive
- Activity [18]: inactive

Structure (SMILES): C=C[C@H](O)C#CC#CC/C=C\CCCCCCC [FALCARINOL]
- Activity [2]: inactive
- Activity [3]: inactive
- Activity [19]: inactive
- Activity [26]: 2 days
- Activity [27]: 3 days
- Activity [28]: 3 days
- Activity [29]: 4 days
- Activity [30]: 4.5 days
- Activity [31]: 5.5 days
- Activity [32]: 6.5 days
- Activity [33]: 22 days
- Activity [6]: 22 days
- Activity [7]: 20 days
- Activity [8]: 19.5 days
- Activity [9]: 20 days
- Activity [10]: 22.5 days
- Activity [11]: 19 days
- Activity [20]: 21 days
- Activity [34]: 5%
- Activity [21]: 5%
- Activity [22]: 13%
- Activity [35]: 5%
- Activity [23]: 13%
- Activity [24]: 7%
- GI50 [1]: 220 nM
- LC50 [1]: 3800 nM
- TGI [1]: 760 nM
- Activity [36]: Active
- Activity [37]: Active
- Activity [38]: Active
- Activity [39]: Active
- Activity [40]: Active
- Activity [41]: Active
- Activity [42]: Active
- Activity [43]: inactive
- Activity [15]: inactive
- Activity [16]: inactive
- Activity [17]: inactive
- Activity [18]: inactive

Structure (SMILES): C=CCCCCC/C=C\[C@H](O)C#CC#C[C@@H](O)CC [DENDROARBOREOL A]
- GI50 [1]: 4600 nM
- LC50 [1]: 25000 nM
- TGI [1]: 14000 nM

Structure (SMILES): C=CCCCCCC(O)/C=C/C#CC#C[C@@H](O)C=C (stereo not given in full) [DENDROARBOREOL B]
- GI50 [1]: 500 nM
- LC50 [1]: 7600 nM
- TGI [1]: 1900 nM

Structure (SMILES): C=C[C@H](O)C#CC#C/C=C/C(O)CCCCCCC (stereo not given in full)
- GI50 [1]: 440 nM
- LC50 [1]: 4700 nM
- TGI [1]: 1400 nM
